{"source": "paper PMC7876696", "about": "(ACS Omega, 2021)", "biological_target": "T1, Hup (histone-like DNA-binding protein of H. pylori) (Helicobacter pylori, UniProt O25506)", "T1 sequence (O25506 1-94)": "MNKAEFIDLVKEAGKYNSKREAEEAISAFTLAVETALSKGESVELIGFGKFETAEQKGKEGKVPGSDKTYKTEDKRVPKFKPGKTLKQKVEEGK", "assay": "ligand-observed 1H NMR titration", "data": [{"compound": "O=C(O[C@@H]1Cc2c(O)cc(O)cc2O[C@@H]1c1cc(O)c(O)c(O)c1)c1cc(O)c(O)c(O)c1", "note": "[EGCG]", "values": [{"measurement": "Kd", "result": "3.29 ± 0.42", "unit": "µM"}]}]}
